Measured values from PubChem BioAssay (NCI).
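Results reflect a 48-hour exposure of cells in 96-well plates to compound at five concentrations. TGI: total growth inhibition.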

Legend:
Experiment in all cases: NCI anticancer screen, dose series, 48 h
OVCAR-8 ovarian = test system: OVCAR-8 ovarian
KM20L2 colon = test system: KM20L2 colon
MALME-3M melanoma = test system: MALME-3M melanoma
EKVX NSCLC = test system: EKVX NSCLC
CCRF-CEM leukemia = test system: CCRF-CEM leukemia
OVCAR-4 ovarian = test system: OVCAR-4 ovarian
SNB-78 CNS = test system: SNB-78 CNS
SN12C renal = test system: SN12C renal
NCI-H460 lung = test system: NCI-H460 lung
A498 renal = test system: A498 renal
SF-268 CNS = test system: SF-268 CNS
UACC-257 melanoma = test system: UACC-257 melanoma
SK-MEL-2 melanoma = test system: SK-MEL-2 melanoma
DLD-1 colon = test system: DLD-1 colon
CAKI-1 renal = test system: CAKI-1 renal
M19-MEL melanoma = test system: M19-MEL melanoma
RXF 393 renal = test system: RXF 393 renal
OVCAR-3 ovarian = test system: OVCAR-3 ovarian
UACC-62 melanoma = test system: UACC-62 melanoma
HCC-2998 colon = test system: HCC-2998 colon
IGROV1 ovarian = test system: IGROV1 ovarian
SK-MEL-5 melanoma = test system: SK-MEL-5 melanoma
HT29 colon = test system: HT29 colon
HL-60(TB) leukemia = test system: HL-60(TB) leukemia
786-0 renal = test system: 786-0 renal
SK-MEL-28 melanoma = test system: SK-MEL-28 melanoma
SNB-19 CNS = test system: SNB-19 CNS
LXFL 529 NSCLC = test system: LXFL 529 NSCLC
MOLT-4 leukemia = test system: MOLT-4 leukemia
DMS 273 small cell lung = test system: DMS 273 small cell lung
NCI-H226 lung = test system: NCI-H226 lung
SF-539 CNS = test system: SF-539 CNS
SR leukemia = test system: SR leukemia
U251 CNS = test system: U251 CNS
HCT-15 colon = test system: HCT-15 colon
HOP-92 NSCLC = test system: HOP-92 NSCLC
HCT-116 colon = test system: HCT-116 colon
COLO 205 colon = test system: COLO 205 colon
LOX IMVI melanoma = test system: LOX IMVI melanoma
M14 melanoma = test system: M14 melanoma
KM12 colon = test system: KM12 colon
OVCAR-5 ovarian = test system: OVCAR-5 ovarian
RPMI-8226 leukemia = test system: RPMI-8226 leukemia
K-562 leukemia = test system: K-562 leukemia
SF-295 CNS = test system: SF-295 CNS
UO-31 renal = test system: UO-31 renal
XF 498 CNS = test system: XF 498 CNS
A549 NSCLC = test system: A549 NSCLC
SW-620 colon = test system: SW-620 colon
ACHN renal = test system: ACHN renal
NCI-H23 lung = test system: NCI-H23 lung
DMS 114 small cell lung = test system: DMS 114 small cell lung
TK-10 renal = test system: TK-10 renal
SNB-75 CNS = test system: SNB-75 CNS
HOP-62 NSCLC = test system: HOP-62 NSCLC
SK-OV-3 ovarian = test system: SK-OV-3 ovarian
NCI-H522 lung = test system: NCI-H522 lung
MDA-N = test system: MDA-N
HS 578T breast = test system: HS 578T breast
PC-3 prostate = test system: PC-3 prostate
BT-549 breast = test system: BT-549 breast
MDA-MB-435 = test system: MDA-MB-435
MDA-MB-231 breast = test system: MDA-MB-231 breast
T-47D breast = test system: T-47D breast
DU-145 prostate = test system: DU-145 prostate
NCI/ADR-RES ovarian = test system: NCI/ADR-RES ovarian
MCF7 breast = test system: MCF7 breast

O=C(OCc1ccccc1)c1ccccc1-c1c2ccc(=O)cc-2oc2cc(OCc3ccccc3)ccc12
TGI (OVCAR-8 ovarian): 74 µM
TGI (KM20L2 colon): > 100 µM
TGI (MALME-3M melanoma): 31.4 µM
TGI (EKVX NSCLC): > 100 µM
TGI (CCRF-CEM leukemia): 36.8 µM
TGI (OVCAR-4 ovarian): > 100 µM
TGI (SNB-78 CNS): > 100 µM
TGI (SN12C renal): 74.4 µM
TGI (NCI-H460 lung): 35.8 µM
TGI (A498 renal): 88.2 µM
TGI (SF-268 CNS): > 100 µM
TGI (UACC-257 melanoma): 67 µM
TGI (SK-MEL-2 melanoma): 46.7 µM
TGI (DLD-1 colon): 39.1 µM
TGI (CAKI-1 renal): 58.5 µM
TGI (M19-MEL melanoma): > 100 µM
TGI (RXF 393 renal): 34 µM
TGI (OVCAR-3 ovarian): 59.1 µM
TGI (UACC-62 melanoma): 24.6 µM
TGI (HCC-2998 colon): 56 µM
TGI (IGROV1 ovarian): 44.3 µM
TGI (SK-MEL-5 melanoma): 17.8 µM
TGI (HT29 colon): 55.5 µM
TGI (HL-60(TB) leukemia): 22.8 µM
TGI (786-0 renal): 71 µM
TGI (SK-MEL-28 melanoma): 61 µM
TGI (SNB-19 CNS): > 100 µM
TGI (LXFL 529 NSCLC): > 100 µM
TGI (MOLT-4 leukemia): 6.44 µM
TGI (DMS 273 small cell lung): > 100 µM
TGI (NCI-H226 lung): 32.2 µM
TGI (SF-539 CNS): 28.9 µM
TGI (SR leukemia): 18.8 µM
TGI (U251 CNS): 13.9 µM
TGI (HCT-15 colon): 63.3 µM
TGI (HOP-92 NSCLC): 17.9 µM
TGI (HCT-116 colon): 57.7 µM
TGI (COLO 205 colon): 42.8 µM
TGI (LOX IMVI melanoma): 21.2 µM
TGI (M14 melanoma): 44.7 µM
TGI (KM12 colon): 31.3 µM
TGI (OVCAR-5 ovarian): > 100 µM
TGI (RPMI-8226 leukemia): 57.7 µM
TGI (K-562 leukemia): > 100 µM
TGI (SF-295 CNS): 80.3 µM
TGI (UO-31 renal): 55.3 µM
TGI (XF 498 CNS): 33.6 µM
TGI (A549 NSCLC): 82.2 µM
TGI (SW-620 colon): > 100 µM
TGI (ACHN renal): > 100 µM
TGI (NCI-H23 lung): 49.6 µM

CC(=O)CC(=O)ON(C)C(=O)Cc1ccccc1
TGI (DMS 114 small cell lung): > 100 µM
TGI (OVCAR-8 ovarian): > 100 µM
TGI (KM20L2 colon): > 100 µM
TGI (MALME-3M melanoma): > 100 µM
TGI (TK-10 renal): > 100 µM
TGI (CCRF-CEM leukemia): > 100 µM
TGI (OVCAR-4 ovarian): > 100 µM
TGI (SNB-78 CNS): > 100 µM
TGI (SN12C renal): > 100 µM
TGI (NCI-H460 lung): > 100 µM
TGI (SNB-75 CNS): > 100 µM
TGI (SF-268 CNS): > 100 µM
TGI (UACC-257 melanoma): > 100 µM
TGI (DLD-1 colon): > 100 µM
TGI (CAKI-1 renal): > 100 µM
TGI (M19-MEL melanoma): > 100 µM
TGI (RXF 393 renal): > 100 µM
TGI (OVCAR-3 ovarian): > 100 µM
TGI (HOP-62 NSCLC): > 100 µM
TGI (UACC-62 melanoma): > 100 µM
TGI (HCC-2998 colon): > 100 µM
TGI (IGROV1 ovarian): > 100 µM
TGI (SK-MEL-5 melanoma): > 100 µM
TGI (HT29 colon): > 100 µM
TGI (HL-60(TB) leukemia): > 100 µM
TGI (786-0 renal): > 100 µM
TGI (SK-MEL-28 melanoma): > 100 µM
TGI (SNB-19 CNS): > 100 µM
TGI (LXFL 529 NSCLC): > 100 µM
TGI (MOLT-4 leukemia): > 100 µM
TGI (DMS 273 small cell lung): > 100 µM
TGI (NCI-H226 lung): > 100 µM
TGI (SF-539 CNS): > 100 µM
TGI (SR leukemia): > 100 µM
TGI (U251 CNS): > 100 µM
TGI (HCT-15 colon): > 100 µM
TGI (HOP-92 NSCLC): > 100 µM
TGI (HCT-116 colon): > 100 µM
TGI (COLO 205 colon): > 100 µM
TGI (LOX IMVI melanoma): > 100 µM
TGI (M14 melanoma): > 100 µM
TGI (KM12 colon): > 100 µM
TGI (OVCAR-5 ovarian): > 100 µM
TGI (SK-OV-3 ovarian): > 100 µM
TGI (RPMI-8226 leukemia): > 100 µM
TGI (K-562 leukemia): > 100 µM
TGI (SF-295 CNS): > 100 µM
TGI (UO-31 renal): > 100 µM
TGI (XF 498 CNS): > 100 µM
TGI (A549 NSCLC): > 100 µM
TGI (NCI-H522 lung): > 100 µM
TGI (SW-620 colon): > 100 µM
TGI (ACHN renal): > 100 µM
TGI (NCI-H23 lung): > 100 µM

COC(=O)C(Cc1ccccc1)N=Cc1c(O)c(O)c(C(C)C)c2cc(C)c(-c3c(C)cc4c(C(C)C)c(O)c(O)c(C=NC(Cc5ccccc5)C(=O)OC)c4c3O)c(O)c12 (centres undefined)
TGI (KM20L2 colon): 55.3 µM
TGI (MALME-3M melanoma): > 100 µM
TGI (CCRF-CEM leukemia): 38.5 µM
TGI (OVCAR-4 ovarian): 64.5 µM
TGI (SNB-78 CNS): 29.2 µM
TGI (NCI-H460 lung): 51.4 µM
TGI (SNB-75 CNS): > 100 µM
TGI (SF-268 CNS): > 100 µM
TGI (UACC-257 melanoma): 63 µM
TGI (SK-MEL-2 melanoma): 44 µM
TGI (M19-MEL melanoma): > 100 µM
TGI (RXF 393 renal): 35 µM
TGI (OVCAR-3 ovarian): 52.1 µM
TGI (HOP-62 NSCLC): > 100 µM
TGI (UACC-62 melanoma): 55.9 µM
TGI (IGROV1 ovarian): > 100 µM
TGI (HT29 colon): 32.5 µM
TGI (HL-60(TB) leukemia): 59 µM
TGI (SK-MEL-28 melanoma): > 100 µM
TGI (SNB-19 CNS): > 100 µM
TGI (LXFL 529 NSCLC): 38.5 µM
TGI (MOLT-4 leukemia): 11.6 µM
TGI (SF-539 CNS): 43.6 µM
TGI (SR leukemia): 10.1 µM
TGI (U251 CNS): 55.2 µM
TGI (HOP-92 NSCLC): 77 µM
TGI (COLO 205 colon): 92.9 µM
TGI (KM12 colon): 39.7 µM
TGI (OVCAR-5 ovarian): 49.3 µM
TGI (SK-OV-3 ovarian): 81 µM
TGI (RPMI-8226 leukemia): 92.3 µM
TGI (K-562 leukemia): > 100 µM
TGI (SF-295 CNS): 35.6 µM
TGI (UO-31 renal): 80.7 µM
TGI (NCI-H522 lung): 54.7 µM
TGI (ACHN renal): 74.3 µM
TGI (NCI-H23 lung): 74.6 µM

CC(C)Cn1cnc2c(SCc3ccccn3)nc(N)nc21
TGI (OVCAR-8 ovarian): > 100 µM
TGI (MALME-3M melanoma): > 100 µM
TGI (TK-10 renal): > 100 µM
TGI (EKVX NSCLC): > 100 µM
TGI (MDA-N): > 100 µM
TGI (CCRF-CEM leukemia): > 100 µM
TGI (HS 578T breast): > 100 µM
TGI (OVCAR-4 ovarian): > 100 µM
TGI (SN12C renal): > 100 µM
TGI (NCI-H460 lung): > 100 µM
TGI (A498 renal): > 100 µM
TGI (SNB-75 CNS): > 100 µM
TGI (SF-268 CNS): > 100 µM
TGI (UACC-257 melanoma): > 100 µM
TGI (SK-MEL-2 melanoma): > 100 µM
TGI (PC-3 prostate): > 100 µM
TGI (BT-549 breast): > 100 µM
TGI (CAKI-1 renal): > 100 µM
TGI (RXF 393 renal): > 100 µM
TGI (OVCAR-3 ovarian): > 100 µM
TGI (HOP-62 NSCLC): > 100 µM
TGI (UACC-62 melanoma): > 100 µM
TGI (HCC-2998 colon): > 100 µM
TGI (IGROV1 ovarian): > 100 µM
TGI (SK-MEL-5 melanoma): > 100 µM
TGI (HT29 colon): > 100 µM
TGI (HL-60(TB) leukemia): > 100 µM
TGI (786-0 renal): > 100 µM
TGI (SK-MEL-28 melanoma): > 100 µM
TGI (SNB-19 CNS): > 100 µM
TGI (NCI-H226 lung): > 100 µM
TGI (SR leukemia): > 100 µM
TGI (U251 CNS): > 100 µM
TGI (MDA-MB-435): > 100 µM
TGI (HCT-15 colon): > 100 µM
TGI (HOP-92 NSCLC): > 100 µM
TGI (HCT-116 colon): > 100 µM
TGI (COLO 205 colon): > 100 µM
TGI (LOX IMVI melanoma): > 100 µM
TGI (M14 melanoma): > 100 µM
TGI (MDA-MB-231 breast): > 100 µM
TGI (T-47D breast): > 100 µM
TGI (KM12 colon): > 100 µM
TGI (OVCAR-5 ovarian): > 100 µM
TGI (SK-OV-3 ovarian): > 100 µM
TGI (RPMI-8226 leukemia): > 100 µM
TGI (K-562 leukemia): > 100 µM
TGI (SF-295 CNS): > 100 µM
TGI (UO-31 renal): > 100 µM
TGI (A549 NSCLC): > 100 µM
TGI (NCI-H522 lung): > 100 µM
TGI (SW-620 colon): > 100 µM
TGI (DU-145 prostate): > 100 µM
TGI (NCI/ADR-RES ovarian): > 100 µM
TGI (ACHN renal): > 100 µM
TGI (NCI-H23 lung): > 100 µM
TGI (MCF7 breast): > 100 µM
